Assay results taken from EP3928779A1 (Chugai Seiyaku Kabushiki Kaisha, priority 2014, dated 2016).

The compounds below were run on rat small-intestinal brush border membrane vesicles (assay: Inhibitory effect on 33PO4 uptake into rat small-intestinal brush border membrane vesicles (rapid filtration method)). Settings: 33PO4 uptake into rat small-intestinal BBMVs; test compound 1 µM; reacted for 60 seconds.
Format: biochemical
In short: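 Uptake of ^33PO4 was measured by rapid filtration and liquid scintillation counting of filter-retained vesicles, after quenching with ice-cold 110 mM NaCl/1 mM KH2PO4/10 mM HEPES pH 7.5. Vesicles were brush border membranes from the upper small intestine of female Wistar rats aged 4–5 weeks.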

Structure (SMILES)	Rate of uptake inhibition (%) (1 µM)
CN1N(Cc2ccc(OCCN3CCOCC3)c(F)c2F)C(=O)C(C(=O)Nc2ccc(C(F)(F)F)cc2-c2ccc(C(F)(F)F)nc2)=C(O)C12CCC2 [Example 282]	55%
Cc1c(C#N)ncnc1-c1cc(C(F)(F)F)ccc1NC(=O)C1=C(O)C2(CCC2)N(C)N(Cc2ccc(OCCN3CCOCC3)c(F)c2F)C1=O [Example 283]	45%
CN1N(Cc2ccc(OCCN3CCOCC3)c(F)c2F)C(=O)C(C(=O)Nc2ccc(C(F)(F)F)cc2-c2ncnc(C(F)(F)F)c2Cl)=C(O)C12CCC2 [Example 284]	46%
Cc1c(-c2cc(C(F)(F)F)ccc2NC(=O)C2=C(O)C3(CCC3)N(C)N(Cc3ccc(OCCN4CCOCC4)c(F)c3F)C2=O)ncnc1C(F)(F)F [Example 285]	62%
CN1N(Cc2ccc(OCCN3CCOCC3)c(F)c2F)C(=O)C(C(=O)Nc2ccc(Cl)cc2-c2cc(C(F)(F)F)ncn2)=C(O)C12CCCC2 [Example 286]	50%
CN1N(Cc2ccc(OCCN3CCOCC3)c(F)c2F)C(=O)C(C(=O)Nc2ccc(C(F)(F)F)cc2-c2ccc(C(F)(F)F)nc2)=C(O)C12CCCC2 [Example 287]	47%
CN1N(Cc2ccc(OCCN3CCOCC3)c(F)c2F)C(=O)C(C(=O)Nc2ccc(Cl)cc2-c2ccc(C(F)(F)F)nc2)=C(O)C12CCCC2 [Example 288]	61%
CSc1ccc(-c2cc(C(F)(F)F)ccc2NC(=O)C2=C(O)C3(CCCC3)N(C)N(Cc3ccc(OCCN4CCOCC4)c(F)c3F)C2=O)cn1 [Example 289]	55%
Cc1c(-c2cc(C(F)(F)F)ccc2NC(=O)C2=C(O)C3(CCCC3)N(C)N(Cc3ccc(OCCN4CCOCC4)c(F)c3F)C2=O)ncnc1C(F)(F)F [Example 290]	59%
CCC1(CC)C(O)=C(C(=O)Nc2ccc(C(F)(F)F)cc2-c2cc(C(F)(F)F)ncn2)C(=O)N(Cc2ccc(OCCN3CCOCC3)c(F)c2F)N1C [Example 291]	47%
CCC1(CC)C(O)=C(C(=O)Nc2ccc(Cl)cc2-c2cc(C(F)(F)F)ncn2)C(=O)N(Cc2ccc(OCCN3CCOCC3)c(F)c2F)N1C [Example 292]	44%
CCC1(CC)C(O)=C(C(=O)Nc2ccc(C(F)(F)F)cc2-c2ccc(C(F)(F)F)nc2)C(=O)N(Cc2ccc(OCCN3CCOCC3)c(F)c2F)N1C [Example 293]	47%
CCC1(CC)C(O)=C(C(=O)Nc2ccc(Cl)cc2-c2ccc(C(F)(F)F)nc2)C(=O)N(Cc2ccc(OCCN3CCOCC3)c(F)c2F)N1C [Example 294]	40%
CN1N(Cc2ccc(OCCN3CCOCC3)c(F)c2F)C(=O)C(C(=O)Nc2ccc(C(F)(F)F)cc2-c2cc(C(F)(F)F)ncn2)=C(O)C12CCCCC2 [Example 295]	21%
Cc1c(-c2cc(C(F)(F)F)ccc2NC(=O)C2=C(O)C3(CCCCC3)N(C)N(Cc3ccc(OCCN4CCOCC4)c(F)c3F)C2=O)ncnc1C(F)(F)F [Example 296]	17%
CN1N(Cc2ccc(OCCN3CCOCC3)c(F)c2F)C(=O)C(C(=O)Nc2ccc(Cl)cc2-c2cc(C(F)(F)F)ncn2)=C(O)C12CCCCC2 [Example 297]	36%
CN1N(Cc2ccc(OCCN3CCOCC3)c(F)c2F)C(=O)C(C(=O)Nc2ccc(Br)c(C(F)(F)F)n2)=C(O)C12CCCCC2 [Example 298]	10%

Structure (SMILES)	Rate of uptake inhibition (%) (1 µM)
CC1(C)C(O)=C(C(=O)Nc2ccc(C(F)(F)F)cc2-c2cc(C(F)(F)F)ncn2)C(=O)N(Cc2cccc(F)c2F)N1c1ccccc1 [Example 299]	45%
CN1N(Cc2cccc(F)c2F)C(=O)C(C(=O)Nc2ccc(C(F)(F)F)cc2-c2cc(C(F)(F)F)ncn2)=C(O)C12CCC2 [Example 300]	74%
CN1N(Cc2cccc(F)c2F)C(=O)C(C(=O)Nc2ccc(C(F)(F)F)cc2-c2ccc(C(F)(F)F)nc2)=C(O)C12CCC2 [Example 301]	79%
COc1cc(-c2cc(C(F)(F)F)ccc2NC(=O)C2=C(O)C(C)(C)N(C)N(Cc3cccc(F)c3F)C2=O)cnc1C#N [Example 302]	79%
CN1N(Cc2cccc(F)c2F)C(=O)C(C(=O)Nc2ccc(C(F)(F)F)cc2-c2cc(C#N)ncn2)=C(O)C1(C)C [Example 303]	42%
CN1N(Cc2cccc(F)c2F)C(=O)C(C(=O)Nc2ccc(C(F)(F)F)nc2-c2ccc(C(F)(F)F)nc2)=C(O)C1(C)C [Example 304]	51%
CN1N(Cc2cccc(F)c2F)C(=O)C(C(=O)Nc2ccc(C(F)(F)F)cc2-c2cncc(C(F)(F)F)c2)=C(O)C1(C)C [Example 305]	66%
CN1N(Cc2cccc(F)c2F)C(=O)C(C(=O)Nc2ccc(C(F)(F)F)nc2-c2cncc(C(F)(F)F)c2)=C(O)C1(C)C [Example 306]	58%
CN1N(Cc2cccc(F)c2F)C(=O)C(C(=O)Nc2cc(C(F)(F)F)ccc2-c2ccc(C(F)(F)F)nc2)=C(O)C1(C)C [Example 307]	41%
CN1N(Cc2cccc(F)c2F)C(=O)C(C(=O)Nc2ccc(C(F)(F)F)cc2-c2ccc(S(=O)(=O)N(C)C)cc2)=C(O)C1(C)C [Example 308]	63%
CN1N(Cc2cccc(F)c2F)C(=O)C(C(=O)Nc2ccc(Cl)cc2-c2ccc(C(F)(F)F)nc2)=C(O)C1(C)C [Example 309]	68%
CSc1ccc(-c2cc(C(F)(F)F)ccc2NC(=O)C2=C(O)C(C)(C)N(C)N(Cc3cccc(F)c3F)C2=O)cn1 [Example 310]	63%
Cc1c(C#N)ncnc1-c1cc(C(F)(F)F)ccc1NC(=O)C1=C(O)C(C)(C)N(C)N(Cc2cccc(F)c2F)C1=O [Example 311]	65%
CN1N(Cc2cccc(F)c2F)C(=O)C(C(=O)Nc2ccc(C(F)(F)F)cc2-c2ncnc(C#N)c2Cl)=C(O)C1(C)C [Example 312]	74%
CN1N(Cc2ccc(OCCN3CCOCC3)c(F)c2F)C(=O)C(C(=O)Nc2ccc(C(F)(F)F)cc2-c2cc(C(F)(F)F)ncn2)=C(O)C1(C)C [Example 313, 2-[[2,3-Difluoro-4-(2-morpholin-4-ylethoxy)phenyl]methyl]-5-hydroxy-1,6,6-trimethyl-3-oxo-N-[4-(trifluoromethyl)-2-[6-(trifluoromethyl)pyrimidin-4-yl]phenyl]pyridazine-4-carboxamide]	65%
CN1N(Cc2ccc(OCCN3CCOCC3)c(F)c2F)C(=O)C(C(=O)Nc2ccc(C(F)(F)F)cc2-c2ccc(C(F)(F)F)nc2)=C(O)C1(C)C [Example 314, 2-[[2,3-Difluoro-4-(2-morpholin-4-ylethoxy)phenyl)methyl]-5-hydroxy-1,6,6-trimethyl-3-oxo-N-[4-(trifluoromethyl)-2-[6-(trifluoromethyl)pyridin-3-yl]phenyl]pyridazine-4-carboxamide]	72%
CN1N(Cc2ccc(C#CCN3CCOCC3)c(F)c2F)C(=O)C(C(=O)Nc2ccc(C(F)(F)F)cc2-c2cc(C(F)(F)F)ncn2)=C(O)C1(C)C [Example 315, 2-[[2,3-Difluoro-4-(3-morpholin-4-ylprop-1-ynil)phenyl]methyl]-5-hydroxy-1,6,6-trimethyl-3-oxo-N-[4-(trifluoromethyl)-2-[6-(trifluoromethyl)pyrimidin-4-yl]phenyl]pyridazine-4-carboxamide]	63%
